In experiment [1] the target is T1, Saccharomyces cerevisiae α-glucosidase (Saccharomyces cerevisiae, UniProt P53341).
T1 construct: purchased Shanghai Yuanye Biotechnology Co., Shanghai, China Lot No. M23HS178879 (catalogue number not given)
The experiment in a line: biochemical. As to conditions: IC50, α-glucosidase 0.2 U/mL, 5 mM pNPG, PBS pH 6.8, 37 °C. Here is the method:
(§1) The α-glucosidase inhibitory effects of flavonoids were evaluated as in a previous report with slight modifications (including changes in the concentrations of the enzyme, substrate, and Na2CO3). Briefly, 50 μL of phosphate-buffered saline (PBS, 0.1 M, pH 6.8), the test compound, and α-glucosidase (0.2 U/mL) were preincubated in a 96-well plate at 37 °C for 10 min. The reaction was then initiated by adding 50 μL of 5 mM pNPG as the substrate. Subsequently, the 96-well plate was incubated for an additional 30 min at 37 °C, then 50 μL of 0.2 M Na2CO3 was added to terminate the reaction. Absorbance was measured at under 405 nm.

Experiment [2] addresses T2, α-glucosidase (Saccharomyces cerevisiae, UniProt P53341).
T2 construct: purchased Shanghai Yuanye Biotechnology Co., Shanghai, China Lot No. M23HS178879 (catalogue number not given)
The experiment in a line: Inhibitory kinetic analysis (Lineweaver–Burk plot). Type of experiment: biochemical. As to conditions: Lineweaver–Burk plots, pNPG 0.31–20 mM. As for the experimental part:
The type of inhibition was determined by using the kinetics curve and the Lineweaver–Burk plot. […] These compounds were incubated with α-glucosidase at 37 °C for 30 min. After incubation, various concentrations of pNPG (0.31–20 mM) were added, and absorbance was measured at 405 nm. The Lineweaver–Burk plot was obtained by plotting 1/[S] on the x-axis and 1/v on the y-axis, where [S] represents substrate concentration and v represents the reaction velocity.

Experiment [3] deals with T2, α-glucosidase. Description: CD spectroscopy, secondary structure of α-glucosidase (BeStSel). The note with it: for β-turn: free enzyme 11.7; for β-sheet: free enzyme 28.8; for random coil: free enzyme 45.2; for α-helix: free enzyme 14.4. Here is the method:
CD spectra in the far-UV region (190–250 nm) were scanned by using a CD spectrometer (JASCO-1.5 Tokyo, Japan). […] The slit width was set to 1 nm, and the baseline was calibrated with PBS (phosphate buffered saline). CD spectra were averaged over three scans under a constant nitrogen flow, with the buffer signal subtracted. The results were analyzed using the BeStSel database (https://bestsel.elte.hu/index.php, accessed on 16 May 2025).

Experiment [4] has as its target T2, α-glucosidase. Description: biochemical. Type of experiment: binding. The note with it: for binding to α-glucosidase (SPR): result in words. As for the experimental part:
SPR analysis was performed using the Biacore 8K system (GE Healthcare, Uppsala, Sweden). α-Glucosidase (0.05 mg/mL) was fixed on the CM5 sensor chip by an amine coupling kit. Subsequently, various concentrations of the 16 flavonoids dissolved in 5% DMSO were continuously injected onto the surface of α-glucosidase coated surface. After each sample injection, the sensor chip surface was washed and regenerated with running buffer (PBS) at a flow rate of 30 µL/min. According to the 1:1 Langmuir model, the equilibrium dissociation constant (KD) was calculated by the Biacore evaluation software. For sensorgrams without significant kinetic features, the KD values were calculated using the steady-state analysis.

Experiment [5] addresses T2, α-glucosidase. The experiment in a line: Mixture effects of flavonoid combinations on α-glucosidase. Type of experiment: biochemical. As to conditions: calculated from the dose–response curve. Here is the method: as §1
The inhibitory activity of the composition was evaluated using the same method described in Section 3.2. […] The combination index (CI, Formula (3)) was subsequently used to assess the interactions between the compounds [60].(2) Y=Bottom+Top−Bottom/1+10^^((LogIC50−X)×HillSlope)
In Formula (3), (D)j represents the concentration of component j in the mixture needed to achieve an effect of x, while (Dx)j denotes the concentration of component j required to produce the same effect when acting alone. Here, x refers to the inhibition rate produced by the composition, and n indicates the number of individual compounds in the composition.

In a further experiment the test system is normal C57BL/6J mice. Description: Oral sucrose test, postprandial blood glucose. Type of experiment: in vivo. As to conditions: for Blood glucose levels: 30 min after sucrose 4 g/kg, n = 8, in mmol/L (unit assumed); for Rate of blood glucose reduction: vs model group, 30 min after sucrose. An excerpt:
Male C57BL/6J mice of SPF grade, aged 6–8 weeks and weighing 18–22 g, were obtained from the Experimental Animal Science Department of Peking University. The mice were housed in a controlled environment with a 12:12 light/dark cycle and a constant temperature. They were provided with standard pellet feed and given free access to drinking water. To ensure acclimatization, the mice were allowed to adjust to the diet and housing conditions for one week prior to the experiment. All animal experiments were performed in compliance with the relevant laws and institutional guidelines for the care and use of laboratory animals in China. The experiments were approved by the Laboratory Animal Management and Ethics Committee of Peking University (LA2021443). Additionally, the certification number for the laboratory animal personnel is 1120111300011.
The 16 flavonoids were subsequently evaluated for their potential antihyperglycemic effects by using the oral sucrose test, which is commonly used to evaluate intestinal α-glucosidase inhibition in vivo [62]. Normal C57BL/6J mice were randomly divided into model groups and the 16 flavonoid compound groups (n = 8 per group), respectively. The flavonoids at different concentrations were suspended in 0.5% sodium carboxymethyl cellulose (CMC-Na). […] Fifteen minutes after drug administration, the mice were given a sucrose solution (4 g/kg). Blood samples were collected from the tail vein at 30 min after sucrose loading, and blood glucose levels were measured using an Accu-Chek Performa glucometer (Roche Diagnostics, SN: 79508621393, Shanghai, China). The rate of blood glucose reduction was calculated using the following Formula (4):(4) The rate of blood glucose reduction%=the model blood glucose-the sample blood glucose/the model blood glucose×100%

Where [6] appears, read: molar ratio 10:1, α-glucosidase 4 μM.
The mark [7] stands for this setting: molar ratio 40:1, α-glucosidase 4 μM.
The mark [8] stands for this setting: molar ratio compound:α-glucosidase 10:1, α-glucosidase 4 μM.

T1 sequence (P53341 whole entry): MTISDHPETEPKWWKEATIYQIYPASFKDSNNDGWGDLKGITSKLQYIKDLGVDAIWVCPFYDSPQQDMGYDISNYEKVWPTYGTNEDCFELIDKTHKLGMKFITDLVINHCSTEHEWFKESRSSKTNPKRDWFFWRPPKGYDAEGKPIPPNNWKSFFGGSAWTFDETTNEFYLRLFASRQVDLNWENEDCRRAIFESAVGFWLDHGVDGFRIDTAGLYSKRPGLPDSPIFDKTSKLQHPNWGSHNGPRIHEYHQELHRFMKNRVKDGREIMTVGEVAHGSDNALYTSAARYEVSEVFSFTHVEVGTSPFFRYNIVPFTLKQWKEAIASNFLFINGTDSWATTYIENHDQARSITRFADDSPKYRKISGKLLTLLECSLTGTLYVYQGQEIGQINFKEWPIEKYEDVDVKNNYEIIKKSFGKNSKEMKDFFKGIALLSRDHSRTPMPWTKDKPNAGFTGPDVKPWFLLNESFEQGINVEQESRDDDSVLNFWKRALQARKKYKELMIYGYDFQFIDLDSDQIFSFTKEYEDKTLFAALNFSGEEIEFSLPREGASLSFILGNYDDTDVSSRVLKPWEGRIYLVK
T2 sequence (P53341 whole entry): as above

For orientation: IC50 means the concentration at which inhibition is half-maximal. Lower therefore signals greater potency in that assay. By Kd is commonly meant the constant that tells how readily two partners part at equilibrium. Low readings indicate tighter binding, high ones weaker binding. In experiment [1], `O=C1C[C@@H](c2ccc(O)cc2)Oc2cc(O)ccc21` [C3, liquiritigenin] returned an IC50 of 161 ± 36.3 µM. On α-glucosidase [2], the “type of inhibition on α-glucosidase” value is recorded as “non-competitive inhibitors”. Further, on α-glucosidase [3] (setting [6]), the β-turn is recorded as 14.2%, the β-sheet is listed as 18.0% and the random coil is 56.1%. Also, on α-glucosidase [3] (setting [7]), the β-turn is 16.2%, the α-helix was determined as 8.00%, the β-sheet is on record as 16.6% and the random coil amounted to 59.2%. The α-helix at α-glucosidase [3] (setting [8]) is 11.7%. Further, on α-glucosidase [4], the Kd was greater than 2000 µM and the “binding to α-glucosidase (SPR)” value was “did not show binding”. The IC05 on α-glucosidase [5] was 13.71 µM. In addition, in the experiment on normal C57BL/6J mice (10 mg/kg oral), the Blood glucose levels was 14.06 ± 1.45 and the “Rate of blood glucose reduction” value was -0.90%. In the experiment with normal C57BL/6J mice (50 mg/kg oral), the Blood glucose levels worked out at 13.19 ± 1.35 and the “Rate of blood glucose reduction” value was determined as 5.38%. Besides, in the experiment on normal C57BL/6J mice (100 mg/kg oral), the Blood glucose levels came out at 11.58 ± 1.23 and the “Rate of blood glucose reduction” value is given as 16.95%.

As for `O=C(/C=C/c1ccc(O)cc1)c1ccc(O)cc1O` [C4, isoliquiritigenin], the IC50 in experiment [1] came out at 69.1 ± 10.7 µM. Moreover, the “type of inhibition on α-glucosidase” value on α-glucosidase [2] is on record as “mixed-type inhibitors”. At α-glucosidase [3] (setting [6]), the β-turn is listed as 11.7%, the β-sheet is 31.0% and the random coil came out at 42.3%. For the same compound, on α-glucosidase [3] (setting [7]), the β-turn was found to be 12.1%, the α-helix worked out at 14.1%, the β-sheet was 24.1% and the random coil stood at 49.7%. On α-glucosidase [3] (setting [8]), the α-helix was 15.0%. Further, on α-glucosidase [4], the Kd is greater than 2000 µM and the “binding to α-glucosidase (SPR)” value was “did not show binding”. Also, on α-glucosidase [5], the IC05 was 9.73 µM and the “IC15 (concentration corresponding to a 15% inhibition rate)” value was 20 µM. In the experiment with normal C57BL/6J mice (10 mg/kg oral), the Blood glucose levels came out at 12.81 ± 1.00 and the “Rate of blood glucose reduction” value stood at 8.07%. In the experiment on normal C57BL/6J mice (50 mg/kg oral), the Blood glucose levels is 13.05 ± 1.44 and the “Rate of blood glucose reduction” value worked out at 6.37%. Also, in the experiment with normal C57BL/6J mice (250 mg/kg oral), the Blood glucose levels is recorded as 11.90 ± 0.62 and the “Rate of blood glucose reduction” value is on record as 14.62%.

In experiment [1], `COc1ccc(C2COc3cc(O)ccc3C2)c(O)c1OC` (stereo not shown) [C17, isomucronulatol] returned an IC50 of 354 ± 40.4 µM. The “type of inhibition on α-glucosidase” value on α-glucosidase [2] is “mixed-type inhibitors”. Further, on α-glucosidase [3] (setting [6]), the β-turn is on record as 11.7%, the β-sheet was determined as 24.3% and the random coil was found to be 49.4%. In addition, on α-glucosidase [3] (setting [7]), the β-turn came to 13.6%, the α-helix was 17.4%, the β-sheet stood at 31.3% and the random coil came to 37.8%. On α-glucosidase [3] (setting [8]), the α-helix is 14.6%. At α-glucosidase [4], the Kd was greater than 2000 µM and the “binding to α-glucosidase (SPR)” value was “did not show binding”. Also, in the experiment with normal C57BL/6J mice (10 mg/kg oral), the Blood glucose levels is 14.46 ± 0.69 and the “Rate of blood glucose reduction” value is reported as 6.32%. Moreover, in the experiment on normal C57BL/6J mice (50 mg/kg oral), the Blood glucose levels was determined as 14.29 ± 0.80 and the “Rate of blood glucose reduction” value worked out at 7.45%. Further, in the experiment with normal C57BL/6J mice (100 mg/kg oral), the Blood glucose levels is 13.24 ± 1.18 and the “Rate of blood glucose reduction” value came to 14.25%.

`O=C1c2ccc(O)cc2OCC1c1ccc(O)cc1` (stereo not shown) [C28, dihydrodaidzein] gave an IC50 in experiment [1] of 412 ± 11.4 µM. On α-glucosidase [2], the “type of inhibition on α-glucosidase” value is on record as “mixed-type inhibitors”. Also, on α-glucosidase [3] (setting [6]), the β-turn came to 14.4%, the β-sheet is 25.6% and the random coil was found to be 50.7%. At α-glucosidase [3] (setting [7]), the β-turn amounted to 12.9%, the α-helix is given as 10.9%, the β-sheet turned out to be 20.7% and the random coil came out at 55.5%. In addition, the α-helix on α-glucosidase [3] (setting [8]) amounted to 9.30%. The IC05 at α-glucosidase [5] was 98.27 µM. Besides, in the experiment with normal C57BL/6J mice (2 mg/kg oral), the Blood glucose levels is 14.84 ± 0.62 and the “Rate of blood glucose reduction” value was -1.80%. For the same compound, in the experiment on normal C57BL/6J mice (10 mg/kg oral), the Blood glucose levels is given as 12.74 ± 0.75 and the “Rate of blood glucose reduction” value was found to be 12.61%. Also, in the experiment on normal C57BL/6J mice (50 mg/kg oral), the Blood glucose levels amounted to 11.39 ± 1.48 and the “Rate of blood glucose reduction” value stood at 21.87%.

`Oc1ccc([C@H]2COc3cc(O)ccc3C2)cc1` [C29, equol]: the IC50 in experiment [1] came out at 131 ± 7.65 µM. Also, the “type of inhibition on α-glucosidase” value on α-glucosidase [2] is reported as “mixed-type inhibitors”. Moreover, on α-glucosidase [3] (setting [6]), the β-turn is recorded as 14.5%, the β-sheet turned out to be 23.5% and the random coil amounted to 51.1%. Besides, at α-glucosidase [3] (setting [7]), the β-turn came out at 13.2%, the α-helix is 8.50%, the β-sheet stood at 23.4% and the random coil came to 55.0%. The α-helix on α-glucosidase [3] (setting [8]) was 10.9%. For the same compound, the Kd at α-glucosidase [4] turned out to be 849 µM. In the experiment with normal C57BL/6J mice (10 mg/kg oral), the Blood glucose levels was 14.70 ± 1.36 and the “Rate of blood glucose reduction” value is recorded as 8.20%. Further, in the experiment on normal C57BL/6J mice (50 mg/kg oral), the Blood glucose levels came out at 13.93 ± 0.62 and the “Rate of blood glucose reduction” value was 13.04%. Further, in the experiment on normal C57BL/6J mice (100 mg/kg oral), the Blood glucose levels is given as 12.56 ± 1.87 and the “Rate of blood glucose reduction” value is 21.55%.

(Values after publication PMC12114633, “α-Glucosidase Inhibition Mechanism and Anti-Hyperglycemic Effects of Flavonoids from Astragali Radix and Their Mixture Effects” (Pharmaceuticals, 2025).)
